Common to all, as to assay: HTS ATP-utilizing enzyme assay, off-chip mobility-shift (Caliper HTS 250)
Assay type in all cases: biochemical
Settings in all cases: test compound 10 μM, kinase listed = active (greater than six-sigma from the mean activity of inactive compounds)

The target in one assay is MAPKAPK2 (Homo sapiens, UniProt P49137). In short, it runs like this:
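Phosphorylation of a peptide substrate was quantified by Caliper mobility-shift separation of substrate and product after 2.5 h at 20-22 °C, with compounds tested at 10 μM. Inhibition was normalized to EDTA-quenched (100%) and DMSO (0%) controls; six-sigma thresholds flagged actives.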

Another assay addresses PDGFR-α (Homo sapiens, UniProt P16234). In short, it runs like this: (§1)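 Inhibition is reported from a single 10 μM concentration. Kinase phosphorylates a peptide substrate over 2.5 hrs at 20° C. to 22° C. before EDTA termination. Potential hits are those beyond six-sigma statistical limits.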
A further assay addresses T1, FLT-3 (Homo sapiens, UniProt P36888).
T1 sequence (P36888 27-993): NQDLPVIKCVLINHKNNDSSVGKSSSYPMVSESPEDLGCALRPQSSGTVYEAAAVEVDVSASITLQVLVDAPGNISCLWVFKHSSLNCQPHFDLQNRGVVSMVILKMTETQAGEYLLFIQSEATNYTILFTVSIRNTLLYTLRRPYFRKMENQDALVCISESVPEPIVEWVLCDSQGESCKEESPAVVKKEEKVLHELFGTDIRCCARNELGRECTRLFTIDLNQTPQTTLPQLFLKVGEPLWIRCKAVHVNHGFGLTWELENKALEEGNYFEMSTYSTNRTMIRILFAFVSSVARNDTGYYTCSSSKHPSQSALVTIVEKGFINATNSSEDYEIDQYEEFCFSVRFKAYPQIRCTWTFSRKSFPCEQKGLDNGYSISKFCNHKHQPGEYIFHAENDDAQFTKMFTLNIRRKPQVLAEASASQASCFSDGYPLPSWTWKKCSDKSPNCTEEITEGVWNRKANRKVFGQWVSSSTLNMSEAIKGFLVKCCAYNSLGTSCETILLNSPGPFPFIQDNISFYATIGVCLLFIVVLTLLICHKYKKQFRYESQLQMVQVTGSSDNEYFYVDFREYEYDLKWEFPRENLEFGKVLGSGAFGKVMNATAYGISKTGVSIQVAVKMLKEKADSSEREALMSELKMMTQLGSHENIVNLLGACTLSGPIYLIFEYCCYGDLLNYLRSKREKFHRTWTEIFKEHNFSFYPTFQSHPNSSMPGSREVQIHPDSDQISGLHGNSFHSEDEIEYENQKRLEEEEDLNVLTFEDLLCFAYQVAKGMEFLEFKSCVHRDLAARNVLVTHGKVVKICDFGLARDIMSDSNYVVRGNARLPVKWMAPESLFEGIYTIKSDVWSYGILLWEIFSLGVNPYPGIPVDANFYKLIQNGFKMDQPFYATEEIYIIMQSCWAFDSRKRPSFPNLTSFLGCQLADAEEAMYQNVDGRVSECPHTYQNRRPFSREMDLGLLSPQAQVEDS
The method, boiled down:
as §1

The next assay concerns the target T2, CHEK1 (Homo sapiens, UniProt O14757).
T2 sequence (O14757 1-476): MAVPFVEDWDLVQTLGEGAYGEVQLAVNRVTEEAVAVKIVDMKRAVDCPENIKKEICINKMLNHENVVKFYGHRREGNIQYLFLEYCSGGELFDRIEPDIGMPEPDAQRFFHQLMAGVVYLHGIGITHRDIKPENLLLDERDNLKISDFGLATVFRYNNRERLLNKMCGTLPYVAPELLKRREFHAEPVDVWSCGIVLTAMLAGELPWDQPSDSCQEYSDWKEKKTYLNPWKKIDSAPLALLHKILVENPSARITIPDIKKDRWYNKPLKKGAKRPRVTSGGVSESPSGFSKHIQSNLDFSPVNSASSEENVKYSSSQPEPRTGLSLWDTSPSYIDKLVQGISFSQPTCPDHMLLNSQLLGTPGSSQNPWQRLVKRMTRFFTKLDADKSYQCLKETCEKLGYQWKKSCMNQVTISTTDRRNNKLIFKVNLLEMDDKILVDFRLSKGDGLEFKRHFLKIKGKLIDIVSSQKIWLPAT
In short, it runs like this:
as §1

In a further assay the target is C-TAK1 (Homo sapiens, UniProt P27448). The method, boiled down: as §1
C-TAK1, sequence (P27448 whole entry): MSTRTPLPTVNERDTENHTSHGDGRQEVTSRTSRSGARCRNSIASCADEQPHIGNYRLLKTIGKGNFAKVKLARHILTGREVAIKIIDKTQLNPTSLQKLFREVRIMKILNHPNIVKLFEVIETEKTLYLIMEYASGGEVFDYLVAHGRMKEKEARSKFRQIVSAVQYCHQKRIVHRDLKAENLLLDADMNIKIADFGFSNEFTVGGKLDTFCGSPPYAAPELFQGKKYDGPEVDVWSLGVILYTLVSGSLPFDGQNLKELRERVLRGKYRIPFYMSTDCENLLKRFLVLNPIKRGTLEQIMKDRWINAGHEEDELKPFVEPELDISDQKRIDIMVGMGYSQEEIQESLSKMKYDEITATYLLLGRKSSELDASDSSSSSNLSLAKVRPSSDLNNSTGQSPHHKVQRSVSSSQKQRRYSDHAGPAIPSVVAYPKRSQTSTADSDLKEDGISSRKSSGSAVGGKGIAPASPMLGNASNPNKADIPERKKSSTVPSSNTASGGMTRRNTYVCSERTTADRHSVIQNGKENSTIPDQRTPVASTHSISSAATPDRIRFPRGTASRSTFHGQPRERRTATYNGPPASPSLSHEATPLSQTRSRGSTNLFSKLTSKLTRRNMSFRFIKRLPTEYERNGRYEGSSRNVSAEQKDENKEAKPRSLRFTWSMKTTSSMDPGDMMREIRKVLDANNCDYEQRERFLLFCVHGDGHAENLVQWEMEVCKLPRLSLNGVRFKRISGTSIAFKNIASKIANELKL
Another assay has as its target LYNA (Homo sapiens, UniProt P07948). In short, it runs like this:
as §1

The target in another assay is T3, PRAK (Homo sapiens, UniProt Q8IW41).
T3 sequence (Q8IW41 1-473): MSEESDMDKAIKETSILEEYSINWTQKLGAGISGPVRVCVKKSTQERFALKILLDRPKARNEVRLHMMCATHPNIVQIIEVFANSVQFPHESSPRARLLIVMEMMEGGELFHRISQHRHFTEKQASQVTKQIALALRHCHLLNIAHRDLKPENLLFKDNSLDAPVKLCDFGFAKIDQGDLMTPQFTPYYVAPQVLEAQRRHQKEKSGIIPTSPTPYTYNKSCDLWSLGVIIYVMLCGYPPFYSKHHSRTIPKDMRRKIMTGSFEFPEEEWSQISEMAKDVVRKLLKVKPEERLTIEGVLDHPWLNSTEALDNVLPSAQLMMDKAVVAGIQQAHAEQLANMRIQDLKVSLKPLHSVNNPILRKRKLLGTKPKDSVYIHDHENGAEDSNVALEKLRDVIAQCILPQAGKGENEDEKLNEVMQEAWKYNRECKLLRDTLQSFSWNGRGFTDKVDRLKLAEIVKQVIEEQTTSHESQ
In short, it runs like this:
as §1

A further assay has as its target SRC (Homo sapiens, UniProt P12931). In short, it runs like this:
as §1

Another assay concerns the target T4, BMX (Homo sapiens, UniProt P51813).
T4 sequence (P51813 1-675): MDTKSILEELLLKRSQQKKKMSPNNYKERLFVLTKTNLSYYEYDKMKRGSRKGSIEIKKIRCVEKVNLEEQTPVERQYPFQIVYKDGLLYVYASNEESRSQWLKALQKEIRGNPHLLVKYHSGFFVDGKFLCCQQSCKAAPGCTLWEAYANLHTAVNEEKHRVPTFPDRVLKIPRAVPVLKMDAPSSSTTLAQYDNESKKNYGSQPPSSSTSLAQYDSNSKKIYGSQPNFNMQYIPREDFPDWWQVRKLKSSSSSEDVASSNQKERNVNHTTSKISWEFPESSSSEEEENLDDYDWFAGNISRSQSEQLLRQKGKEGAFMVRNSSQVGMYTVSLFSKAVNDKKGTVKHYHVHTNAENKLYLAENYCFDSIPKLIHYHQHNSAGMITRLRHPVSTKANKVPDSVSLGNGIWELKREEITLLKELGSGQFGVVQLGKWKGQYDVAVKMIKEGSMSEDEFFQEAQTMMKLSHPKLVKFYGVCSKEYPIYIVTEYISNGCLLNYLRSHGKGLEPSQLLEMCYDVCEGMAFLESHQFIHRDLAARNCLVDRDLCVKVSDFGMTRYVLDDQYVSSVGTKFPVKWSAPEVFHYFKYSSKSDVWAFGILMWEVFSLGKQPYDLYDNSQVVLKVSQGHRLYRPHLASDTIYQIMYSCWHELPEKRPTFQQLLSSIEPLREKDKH
In short, it runs like this: as §1

A further assay has as its target T5, NEK2 (Homo sapiens, UniProt P51955).
T5 sequence (P51955 1-445): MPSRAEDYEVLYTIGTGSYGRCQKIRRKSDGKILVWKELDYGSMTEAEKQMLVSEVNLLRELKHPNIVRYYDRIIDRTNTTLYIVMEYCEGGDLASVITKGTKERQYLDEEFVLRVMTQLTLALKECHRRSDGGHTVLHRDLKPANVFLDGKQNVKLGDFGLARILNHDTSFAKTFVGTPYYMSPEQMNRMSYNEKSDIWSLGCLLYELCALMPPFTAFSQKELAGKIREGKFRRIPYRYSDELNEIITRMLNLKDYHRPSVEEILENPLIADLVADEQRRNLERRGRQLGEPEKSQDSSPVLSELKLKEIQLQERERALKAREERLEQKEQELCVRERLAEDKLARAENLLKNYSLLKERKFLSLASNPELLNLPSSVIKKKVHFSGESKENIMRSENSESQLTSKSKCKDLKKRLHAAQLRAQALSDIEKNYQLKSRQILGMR
In short, it runs like this:
as §1

In a further assay the target is ABL1 (Homo sapiens, UniProt P00519). In short, it runs like this:
as §1

The target of a further assay is GSK3-α (Homo sapiens, UniProt P49840). In short, it runs like this:
as §1

From US7452887B2, “Quinoline- and isoquinoline-based compounds exhibiting ATP-utilizing enzyme inhibitory activity, and compositions, and uses thereof” (Amphora Discovery Corporation, priority 2004, dated 2008) come the findings set out here.

MAPKAPK2, sequence (P49137 whole entry): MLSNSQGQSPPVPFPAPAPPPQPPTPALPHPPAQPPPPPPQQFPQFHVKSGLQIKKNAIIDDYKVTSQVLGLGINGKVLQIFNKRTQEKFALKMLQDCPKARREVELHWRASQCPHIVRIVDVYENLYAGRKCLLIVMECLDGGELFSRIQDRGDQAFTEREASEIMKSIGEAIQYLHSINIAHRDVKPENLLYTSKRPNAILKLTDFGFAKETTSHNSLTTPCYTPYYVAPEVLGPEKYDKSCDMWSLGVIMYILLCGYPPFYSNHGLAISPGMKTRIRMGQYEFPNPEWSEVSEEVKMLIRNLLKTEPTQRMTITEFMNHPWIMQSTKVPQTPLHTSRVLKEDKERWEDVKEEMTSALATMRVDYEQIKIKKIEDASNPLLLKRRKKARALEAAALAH
PDGFR-α, sequence (P16234 24-1089): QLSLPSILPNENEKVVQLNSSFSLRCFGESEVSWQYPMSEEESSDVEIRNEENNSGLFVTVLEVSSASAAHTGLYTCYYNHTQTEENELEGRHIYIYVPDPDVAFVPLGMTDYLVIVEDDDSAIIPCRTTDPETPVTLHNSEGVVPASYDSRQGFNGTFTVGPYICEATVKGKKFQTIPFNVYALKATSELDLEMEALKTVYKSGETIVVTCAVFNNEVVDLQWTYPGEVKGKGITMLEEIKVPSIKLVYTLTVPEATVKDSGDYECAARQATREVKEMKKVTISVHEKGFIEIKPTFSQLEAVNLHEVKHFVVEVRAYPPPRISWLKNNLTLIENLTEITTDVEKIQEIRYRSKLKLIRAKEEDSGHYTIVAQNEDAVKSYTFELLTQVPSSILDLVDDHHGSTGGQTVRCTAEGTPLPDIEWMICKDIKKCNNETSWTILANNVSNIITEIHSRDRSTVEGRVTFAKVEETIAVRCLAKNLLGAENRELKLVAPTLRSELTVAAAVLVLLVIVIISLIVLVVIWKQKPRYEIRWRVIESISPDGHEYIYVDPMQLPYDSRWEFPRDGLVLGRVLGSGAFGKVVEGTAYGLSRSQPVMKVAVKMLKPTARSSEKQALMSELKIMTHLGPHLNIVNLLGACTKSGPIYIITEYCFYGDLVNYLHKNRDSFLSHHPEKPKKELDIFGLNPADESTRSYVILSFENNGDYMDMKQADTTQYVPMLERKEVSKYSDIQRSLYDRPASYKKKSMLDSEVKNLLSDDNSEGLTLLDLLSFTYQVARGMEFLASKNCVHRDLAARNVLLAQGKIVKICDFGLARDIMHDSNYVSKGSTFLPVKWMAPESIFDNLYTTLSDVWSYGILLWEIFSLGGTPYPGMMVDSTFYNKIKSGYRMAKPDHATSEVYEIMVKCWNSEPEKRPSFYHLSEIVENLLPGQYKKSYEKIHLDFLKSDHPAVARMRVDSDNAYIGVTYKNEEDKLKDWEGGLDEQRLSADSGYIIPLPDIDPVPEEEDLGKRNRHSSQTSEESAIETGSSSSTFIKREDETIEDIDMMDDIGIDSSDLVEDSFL
SRC, sequence (P12931 whole entry): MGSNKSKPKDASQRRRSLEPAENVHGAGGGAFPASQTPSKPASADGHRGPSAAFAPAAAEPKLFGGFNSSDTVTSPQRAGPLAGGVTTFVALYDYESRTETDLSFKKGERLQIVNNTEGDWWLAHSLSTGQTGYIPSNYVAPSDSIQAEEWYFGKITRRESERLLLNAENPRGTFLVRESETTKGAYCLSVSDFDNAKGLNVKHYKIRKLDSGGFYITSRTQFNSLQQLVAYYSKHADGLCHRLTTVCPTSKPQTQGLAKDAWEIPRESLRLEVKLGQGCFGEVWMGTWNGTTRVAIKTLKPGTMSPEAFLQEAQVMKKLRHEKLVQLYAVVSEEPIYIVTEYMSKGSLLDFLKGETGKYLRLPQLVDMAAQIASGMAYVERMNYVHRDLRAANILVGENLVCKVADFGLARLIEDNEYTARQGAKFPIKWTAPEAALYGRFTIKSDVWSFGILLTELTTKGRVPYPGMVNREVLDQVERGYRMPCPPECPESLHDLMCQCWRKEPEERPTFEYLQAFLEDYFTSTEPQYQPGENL
GSK3-α, sequence (P49840 whole entry): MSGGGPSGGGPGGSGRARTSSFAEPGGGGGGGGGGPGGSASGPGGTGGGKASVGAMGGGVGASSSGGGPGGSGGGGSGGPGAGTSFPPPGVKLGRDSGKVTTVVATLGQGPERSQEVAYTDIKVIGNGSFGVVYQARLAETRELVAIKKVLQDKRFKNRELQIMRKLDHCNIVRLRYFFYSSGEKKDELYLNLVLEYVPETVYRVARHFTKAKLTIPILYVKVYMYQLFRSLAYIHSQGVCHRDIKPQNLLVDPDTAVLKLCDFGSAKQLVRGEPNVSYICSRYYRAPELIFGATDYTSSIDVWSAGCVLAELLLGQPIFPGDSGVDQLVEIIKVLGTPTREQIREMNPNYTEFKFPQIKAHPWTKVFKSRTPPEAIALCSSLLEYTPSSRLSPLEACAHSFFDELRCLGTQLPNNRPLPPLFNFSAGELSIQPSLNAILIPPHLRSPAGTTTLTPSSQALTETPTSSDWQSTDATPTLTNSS
LYNA, sequence (P07948 whole entry): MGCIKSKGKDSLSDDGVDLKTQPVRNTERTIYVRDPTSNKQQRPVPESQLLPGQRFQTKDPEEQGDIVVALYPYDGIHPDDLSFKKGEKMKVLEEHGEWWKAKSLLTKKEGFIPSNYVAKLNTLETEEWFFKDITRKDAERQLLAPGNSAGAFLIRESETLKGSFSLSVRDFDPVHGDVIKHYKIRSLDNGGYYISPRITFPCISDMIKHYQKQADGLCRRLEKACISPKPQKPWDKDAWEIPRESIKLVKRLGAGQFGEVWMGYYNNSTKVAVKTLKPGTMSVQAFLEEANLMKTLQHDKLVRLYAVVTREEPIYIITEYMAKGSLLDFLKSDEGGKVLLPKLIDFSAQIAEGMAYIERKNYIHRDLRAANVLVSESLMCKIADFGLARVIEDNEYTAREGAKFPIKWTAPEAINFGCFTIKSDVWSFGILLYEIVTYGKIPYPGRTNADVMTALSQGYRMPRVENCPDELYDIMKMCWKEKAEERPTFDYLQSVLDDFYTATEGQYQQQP
ABL1, sequence (P00519 whole entry): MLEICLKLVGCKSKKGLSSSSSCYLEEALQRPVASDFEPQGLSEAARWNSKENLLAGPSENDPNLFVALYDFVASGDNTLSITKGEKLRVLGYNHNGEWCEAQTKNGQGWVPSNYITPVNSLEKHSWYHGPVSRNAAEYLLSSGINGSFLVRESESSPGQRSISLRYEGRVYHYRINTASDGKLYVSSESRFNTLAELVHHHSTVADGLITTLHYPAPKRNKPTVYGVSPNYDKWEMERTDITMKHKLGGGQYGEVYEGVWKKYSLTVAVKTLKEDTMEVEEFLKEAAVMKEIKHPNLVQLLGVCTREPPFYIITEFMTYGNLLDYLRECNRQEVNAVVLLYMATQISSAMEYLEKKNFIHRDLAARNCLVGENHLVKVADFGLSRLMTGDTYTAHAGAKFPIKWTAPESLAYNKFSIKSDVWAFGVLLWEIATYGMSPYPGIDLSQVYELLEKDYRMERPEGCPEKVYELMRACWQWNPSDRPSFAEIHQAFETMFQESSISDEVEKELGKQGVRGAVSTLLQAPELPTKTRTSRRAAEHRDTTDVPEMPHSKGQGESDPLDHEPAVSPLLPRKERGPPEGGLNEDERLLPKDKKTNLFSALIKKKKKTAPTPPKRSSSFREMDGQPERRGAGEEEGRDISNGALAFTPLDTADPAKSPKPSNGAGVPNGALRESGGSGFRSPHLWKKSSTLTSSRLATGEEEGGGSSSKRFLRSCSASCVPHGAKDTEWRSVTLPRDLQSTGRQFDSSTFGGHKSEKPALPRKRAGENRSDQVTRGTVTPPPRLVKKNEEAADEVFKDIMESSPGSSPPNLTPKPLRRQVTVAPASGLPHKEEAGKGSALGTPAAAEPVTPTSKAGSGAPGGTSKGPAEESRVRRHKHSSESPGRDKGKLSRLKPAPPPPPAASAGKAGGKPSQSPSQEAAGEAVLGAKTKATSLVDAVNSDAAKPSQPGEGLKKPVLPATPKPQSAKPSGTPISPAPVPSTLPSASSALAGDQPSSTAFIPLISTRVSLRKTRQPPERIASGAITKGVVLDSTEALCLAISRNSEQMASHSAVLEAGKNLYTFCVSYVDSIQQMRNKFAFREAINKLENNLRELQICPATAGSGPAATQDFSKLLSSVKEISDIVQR

On to `COc1ccc(-c2ccc3nccc(Nc4ccc(N5CCN(CC(=O)O)CC5)cc4)c3c2)cc1` [2-(4-(4-(6-(4-methoxyphenyl)quinolin-4-ylamino)phenyl)piperazin-1-yl)acetic acid], for which the Activity entry on MAPKAPK2 is on record as “MAPKAPK2”; on PDGFR-α it was “PDGFR-α”.

In the case of `O=C(O)CN1CCN(c2ccc(Nc3ccnc4ccc(-c5ccccc5)cc34)cc2)CC1` [2-(4-(4-(6-phenylquinolin-4-ylamino)phenyl)piperazin-1-yl)acetic acid], the Activity result on MAPKAPK2 is reported as “MAPKAPK2”; on PDGFR-α, “PDGFR-α”; on FLT-3, “FLT-3”.

With `CN(C)CCN1CCN(c2ccc(Nc3ccnc4ccc(-c5ccc(C#N)cc5)cc34)cc2)CC1` [4-(4-(4-(4-(2-(dimethylamino)ethyl)piperazin-1-yl)phenylamino)quinolin-6-yl)benzonitrile], the Activity entry on MAPKAPK2 is recorded as “MAPKAPK2”; on CHEK1, “CHEK1”; at C-TAK1, “C-TAK1”.

In the case of `CN1CCN(c2ccc(Nc3ccnc4ccc(-c5cccc(Cl)c5Cl)cc34)cc2)CC1` [6-(2,3-dichlorophenyl)-N-(4-(4-methylpiperazin-1-yl)phenyl)quinolin-4-amine], the Activity result on MAPKAPK2 was “MAPKAPK2”; on LYNA, “LYNA”; on C-TAK1, “C-TAK1”; on PRAK, “PRAK”.

For `CN1CCN(c2ccc(Nc3ccnc4ccc(-c5ccc(OCc6ccccc6)cc5)cc34)cc2)CC1` [6-(4-(benzyloxy)phenyl)-N-(4-(4-methylpiperazin-1-yl)phenyl)quinolin-4-amine], the values for the Activity entry at SRC, at BMX and on C-TAK1 were “SRC”, “BMX” and “C-TAK1”, respectively.

Consider `CN1CCN(c2ccc(Nc3ccnc4ccc(-c5ccc(C(C)(C)C)cc5)cc34)cc2)CC1` [6-(4-tert-butylphenyl)-N-(4-(4-methylpiperazin-1-yl)phenyl)quinolin-4-amine], for which the Activity result is “MAPKAPK2” on MAPKAPK2; “CHEK1” on CHEK1; “NEK2” on NEK2; “C-TAK1” at C-TAK1; “PRAK” on PRAK.

Regarding `CN1CCN(c2ccc(Nc3ccnc4ccc(-c5cc6ccccc6s5)cc34)cc2)CC1` [6-(benzo[b]thiophen-2-yl)-N-(4-(4-methylpiperazin-1-yl)phenyl)quinolin-4-amine], the Activity result at MAPKAPK2 was “MAPKAPK2”; on SRC, “SRC”; at C-TAK1 it was “C-TAK1”.

For `CN1CCN(c2ccc(Nc3ccnc4ccc(-c5csc6ccccc56)cc34)cc2)CC1` [6-(benzo[b]thiophen-3-yl)-N-(4-(4-methylpiperazin-1-yl)phenyl)quinolin-4-amine], the Activity result is given as “MAPKAPK2” at MAPKAPK2, “ABL1” at ABL1 and “PRAK” on PRAK.

Turning to `CC(=O)Nc1cccc(-c2ccc3nccc(Nc4ccc(N5CCN(C)CC5)cc4)c3c2)c1` [N-(3-(4-(4-(4-methylpiperazin-1-yl)phenylamino)quinolin-6-yl)phenyl)acetamide], the figures for the Activity entry on MAPKAPK2, at GSK3-α and at PRAK were “MAPKAPK2”, “GSK3-α” and “PRAK”, respectively.

For `CN1CCN(c2ccc(Nc3ccnc4ccc(-c5cc(F)c(F)c(F)c5)cc34)cc2)CC1` [N-(4-(4-methylpiperazin-1-yl)phenyl)-6-(3,4,5-trifluorophenyl)quinolin-4-amine], the Activity entry is listed as “MAPKAPK2” at MAPKAPK2, “CHEK1” on CHEK1, “NEK2” at NEK2 and “PRAK” on PRAK.

For `CN1CCN(c2ccc(Nc3ccnc4ccc(-c5ccc(C(F)(F)F)cc5)cc34)cc2)CC1` [N-(4-(4-methylpiperazin-1-yl)phenyl)-6-(4-(trifluoromethyl)phenyl)quinolin-4-amine], the Activity entry at CHEK1 is given as “CHEK1”; at NEK2 it was “NEK2”; at C-TAK1, “C-TAK1”; on PRAK it was “PRAK”.
